The target of assay [1] is Tyrosine-protein kinase BTK (Homo sapiens, UniProt Q06187). Kind of assay: Inhibition of Btk (unknown origin) using GST-SLP-76 as peptide substrate incubated for 10 mins in presence of [gamma-33P]ATP by scintillation counter assay.
Assay [2] concerns the target T1, Cytoplasmic tyrosine-protein kinase BMX (Homo sapiens, UniProt P51813).
T1 sequence (P51813 whole entry): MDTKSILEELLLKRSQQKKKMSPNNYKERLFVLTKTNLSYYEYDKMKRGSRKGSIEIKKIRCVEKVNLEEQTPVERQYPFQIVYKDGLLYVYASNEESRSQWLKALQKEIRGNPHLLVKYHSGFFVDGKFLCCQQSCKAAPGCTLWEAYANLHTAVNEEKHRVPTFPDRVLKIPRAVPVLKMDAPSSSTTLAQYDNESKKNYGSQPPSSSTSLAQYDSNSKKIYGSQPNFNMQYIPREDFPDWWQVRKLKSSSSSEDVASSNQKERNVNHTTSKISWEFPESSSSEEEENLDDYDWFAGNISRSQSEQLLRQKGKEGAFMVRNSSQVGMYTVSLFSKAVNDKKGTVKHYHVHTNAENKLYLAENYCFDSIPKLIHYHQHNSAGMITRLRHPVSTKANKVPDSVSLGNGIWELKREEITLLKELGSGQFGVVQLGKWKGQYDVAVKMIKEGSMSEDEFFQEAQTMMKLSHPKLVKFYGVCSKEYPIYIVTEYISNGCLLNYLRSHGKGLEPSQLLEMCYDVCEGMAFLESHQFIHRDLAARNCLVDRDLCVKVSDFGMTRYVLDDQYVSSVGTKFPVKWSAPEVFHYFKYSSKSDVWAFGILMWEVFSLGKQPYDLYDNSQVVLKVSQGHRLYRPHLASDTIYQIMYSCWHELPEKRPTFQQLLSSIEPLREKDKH
The assay is described as follows: Inhibition of Bmx (unknown origin) using GST-SLP-76 as peptide substrate incubated for 10 mins in presence of [gamma-33P]ATP by scintillation counter assay.

In assay [3] the target is Tyrosine-protein kinase Fyn (Homo sapiens, UniProt P06241). The assay is described as follows: Inhibition of Fyn (unknown origin) using GST-SLP-76 as peptide substrate incubated for 10 mins in presence of [gamma-33P]ATP by scintillation counter assay.
Chain of Tyrosine-protein kinase Fyn (P06241 whole entry): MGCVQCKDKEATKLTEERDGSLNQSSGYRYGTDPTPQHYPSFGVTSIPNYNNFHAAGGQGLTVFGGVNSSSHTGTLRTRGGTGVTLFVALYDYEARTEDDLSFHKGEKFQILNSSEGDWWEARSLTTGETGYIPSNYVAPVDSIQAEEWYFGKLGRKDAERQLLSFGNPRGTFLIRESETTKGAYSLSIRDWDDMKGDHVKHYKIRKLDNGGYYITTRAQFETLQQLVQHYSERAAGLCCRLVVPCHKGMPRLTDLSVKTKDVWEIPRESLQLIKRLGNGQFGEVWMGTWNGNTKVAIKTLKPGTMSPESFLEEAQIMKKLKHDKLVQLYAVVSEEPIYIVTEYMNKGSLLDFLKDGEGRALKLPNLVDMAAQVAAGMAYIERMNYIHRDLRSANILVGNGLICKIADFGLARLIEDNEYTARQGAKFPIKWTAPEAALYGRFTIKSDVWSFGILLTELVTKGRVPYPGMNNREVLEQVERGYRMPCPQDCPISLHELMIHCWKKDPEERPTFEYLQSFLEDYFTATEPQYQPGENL
The target in assay [4] is T2, Tyrosine-protein kinase ZAP-70 (Homo sapiens, UniProt P43403).
T2 sequence (P43403 whole entry): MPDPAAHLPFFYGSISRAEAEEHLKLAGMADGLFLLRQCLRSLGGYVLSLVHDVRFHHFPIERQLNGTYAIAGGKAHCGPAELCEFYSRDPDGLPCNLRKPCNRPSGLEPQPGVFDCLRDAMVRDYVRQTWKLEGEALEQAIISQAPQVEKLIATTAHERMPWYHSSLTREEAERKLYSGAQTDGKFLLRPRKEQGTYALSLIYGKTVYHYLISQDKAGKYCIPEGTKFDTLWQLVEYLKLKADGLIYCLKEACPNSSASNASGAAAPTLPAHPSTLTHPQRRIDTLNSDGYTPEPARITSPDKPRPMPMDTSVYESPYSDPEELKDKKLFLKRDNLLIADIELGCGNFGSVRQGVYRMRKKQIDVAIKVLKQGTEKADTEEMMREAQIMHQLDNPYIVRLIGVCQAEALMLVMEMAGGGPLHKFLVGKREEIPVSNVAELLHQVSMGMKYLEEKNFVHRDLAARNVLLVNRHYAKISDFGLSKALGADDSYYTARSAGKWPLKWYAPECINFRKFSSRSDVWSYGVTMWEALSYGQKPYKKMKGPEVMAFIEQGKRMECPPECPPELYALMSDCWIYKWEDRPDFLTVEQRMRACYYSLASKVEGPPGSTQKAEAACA
The assay is described as follows: Inhibition of ZAP-70 (unknown origin) using GST-SLP-76 as peptide substrate incubated for 10 mins in presence of [gamma-33P]ATP by scintillation counter assay.

Assay [5] has as its target Mitogen-activated protein kinase 3 (Homo sapiens, UniProt P27361). The assay is described as follows: Inhibition of ERK-1 (unknown origin) using GST-SLP-76 as peptide substrate incubated for 10 mins in presence of [gamma-33P]ATP by scintillation counter assay.
In assay [6] the target is T3, Tyrosine-protein kinase ITK/TSK (Homo sapiens) (UniProt Q08881).
T3 sequence (whole entry): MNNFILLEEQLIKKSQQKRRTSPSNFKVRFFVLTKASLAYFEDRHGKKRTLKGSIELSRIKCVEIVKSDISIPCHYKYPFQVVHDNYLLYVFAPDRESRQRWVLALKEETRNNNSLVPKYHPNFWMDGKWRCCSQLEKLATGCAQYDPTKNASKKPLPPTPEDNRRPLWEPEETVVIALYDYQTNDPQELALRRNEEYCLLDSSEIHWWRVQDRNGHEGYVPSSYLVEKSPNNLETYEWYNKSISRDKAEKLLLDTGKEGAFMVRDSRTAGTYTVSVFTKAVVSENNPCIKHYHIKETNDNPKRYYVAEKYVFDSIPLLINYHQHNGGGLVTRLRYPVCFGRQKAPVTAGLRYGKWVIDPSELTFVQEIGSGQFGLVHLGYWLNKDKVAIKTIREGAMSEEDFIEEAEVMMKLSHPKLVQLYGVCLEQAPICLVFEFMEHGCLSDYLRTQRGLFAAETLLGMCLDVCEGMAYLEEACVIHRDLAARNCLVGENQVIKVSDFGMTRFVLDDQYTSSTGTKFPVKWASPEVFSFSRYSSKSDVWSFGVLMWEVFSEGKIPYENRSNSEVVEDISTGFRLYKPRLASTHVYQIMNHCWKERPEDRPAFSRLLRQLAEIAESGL
Kind of assay: Inhibition of Itk in human Jurkat T cells assessed as inhibition of tyrosine phosphorylation with 145 kDa molecular weight at 0.1 to 10 uM incubated for 20 mins in presence of CD3 antibody G19-4 by Western blotting analysis. Format: cell-based. The settings on record: dose 0.1-10 µM. On the technique in general: Immunoblotting shows a protein as a band on a membrane.

Assay [7] addresses T3, Tyrosine-protein kinase ITK/TSK (Homo sapiens). Kind of assay: Inhibition of Itk in human Jurkat T cells assessed as inhibition of PLCgamma1 phosphorylation incubated for 20 mins in presence of CD3 antibody G19-4 by Western blotting analysis. In kind it is cell-based. The settings on record: dose 0.1-10 µM.
Assay [8] has the same target. The assay is described as follows: Inhibition of Itk in EGF-stimulated human A549 cells assessed as reduction in PLCgamma1 phosphorylation at <=10 uM incubated for 20 mins by Western blotting analysis. Format: cell-based.
Another assay relates to T-cell line. Kind of assay: Anti-proliferative activity against irradiated APC induced human T cell incubated for 3 days. The settings on record: light or radiation study, 72 h. In kind it is functional, cell-based.

Among the data in ChEMBL document CHEMBL5715936, “Selective Itk inhibitors block T-cell activation and murine lung inflammation” (Biochemistry, 2004) are IC50 and inhibition values, retold here.

pIC50: −log10 of the molar value. Calls of active or inactive are those of the source. The rule behind the calls is not given here.

Chain of Mitogen-activated protein kinase 3 (P27361 whole entry): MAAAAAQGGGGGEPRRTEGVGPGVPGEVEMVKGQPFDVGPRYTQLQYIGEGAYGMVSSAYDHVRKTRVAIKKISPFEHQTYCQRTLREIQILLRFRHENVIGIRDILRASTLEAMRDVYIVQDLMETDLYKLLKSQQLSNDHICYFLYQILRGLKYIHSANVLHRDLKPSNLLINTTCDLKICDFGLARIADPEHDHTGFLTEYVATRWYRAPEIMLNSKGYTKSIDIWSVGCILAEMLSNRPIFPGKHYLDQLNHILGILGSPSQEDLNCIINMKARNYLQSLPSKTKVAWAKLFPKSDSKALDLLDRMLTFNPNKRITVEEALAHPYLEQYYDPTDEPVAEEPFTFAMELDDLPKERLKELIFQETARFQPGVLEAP
Chain of Tyrosine-protein kinase BTK (Q06187 whole entry): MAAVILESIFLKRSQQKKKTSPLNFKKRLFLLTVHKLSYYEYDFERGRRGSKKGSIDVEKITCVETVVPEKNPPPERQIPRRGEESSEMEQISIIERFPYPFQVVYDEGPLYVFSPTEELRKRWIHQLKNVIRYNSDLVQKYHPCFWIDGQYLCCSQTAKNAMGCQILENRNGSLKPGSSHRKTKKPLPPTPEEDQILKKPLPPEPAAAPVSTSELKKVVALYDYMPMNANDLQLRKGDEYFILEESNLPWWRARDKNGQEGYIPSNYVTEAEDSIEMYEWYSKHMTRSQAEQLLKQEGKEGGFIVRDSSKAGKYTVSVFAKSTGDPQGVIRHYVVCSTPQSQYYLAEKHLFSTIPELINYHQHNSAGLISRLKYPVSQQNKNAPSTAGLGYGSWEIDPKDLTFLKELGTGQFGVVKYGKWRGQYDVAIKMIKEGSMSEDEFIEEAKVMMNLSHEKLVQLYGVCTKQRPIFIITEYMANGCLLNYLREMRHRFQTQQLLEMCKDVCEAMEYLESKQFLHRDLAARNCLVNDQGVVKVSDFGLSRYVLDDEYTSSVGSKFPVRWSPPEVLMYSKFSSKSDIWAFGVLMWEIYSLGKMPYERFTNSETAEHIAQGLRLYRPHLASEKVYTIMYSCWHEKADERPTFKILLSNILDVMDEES

For the compound `CC(=O)N1CCN(C(=O)c2cc(CSc3cnc(NC(=O)c4ccc(CNC(C)C(C)(C)C)cc4)s3)cc(C)c2C)CC1` (stereo not drawn), the negative-log IC50 (pIC50) is less than 4.30 in assay [1]; less than 4.30 in assay [2]; 5.07 in [3]; less than 4.30 in [4]; less than 4.30 in [5]; 6.46 with T-cell line. Moreover, the inhibition result in assay [6] and in [8] was “Active” each time. In addition, the inhibition entry in [7] was “Dose-Dependent Effect”.
As to `COc1cc(C)c(Sc2cnc(NC(=O)c3ccc(CNC(C)C(C)(C)C)cc3)s2)cc1C(=O)N1CCN(C(C)=O)CC1` (stereo not drawn), the pIC50 in assay [1] was 5.39; in assay [2], less than 4.30; in assay [3], 5.96; in [4], less than 4.30; in assay [5], less than 4.30; in the assay with T-cell line, 6.37. In addition, the inhibition entry in assay [6] and in assay [8] was “Active” throughout. Further, the inhibition result in assay [7] was “Dose-Dependent Effect”.

The term pIC50 denotes −log10 of the IC50, conventionally taken in molar units.
